Results published in PubChem BioAssay AID328 (DTP/NCI, 2004).
Where “and” joins values, the source holds several entries; their conditions need not be identical. Equal entries are not always repeated. Inconclusive results and toxic doses are left out.

Tested on: BDF1 mice, P388 leukemia ip, median survival T/C
Test: NCI In Vivo Anticancer Drug Screen. Data for tumor model P388 Leukemia (intraperitoneal) in B6D2F1 (BDF1) mice
Conditions: endpoint: median survival time, higher = longer survival
Procedure, shortened: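 Transplantable tumour in mice; compound vs vehicle dosing; survival scored; ratio of treated to control reported.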

[1] = dose: 25.0 mg/kg/injection, schedule: Q04DX003 (ip), vehicle: Klucel (hydroxypropylcellulose) (HPC)
[2] = dose: 50.0 mg/kg/injection, schedule: Q04DX003 (ip), vehicle: Klucel (hydroxypropylcellulose) (HPC)
[3] = dose: 100.0 mg/kg/injection, schedule: Q01DX009 (ip), vehicle: Klucel (hydroxypropylcellulose) (HPC)
[4] = dose: 100.0 mg/kg/injection, schedule: Q04DX003 (ip), vehicle: Klucel (hydroxypropylcellulose) (HPC)
[5] = dose: 25.0 mg/kg/injection, schedule: Q01DX009 (ip), vehicle: saline with Tween-80
[6] = dose: 50.0 mg/kg/injection, schedule: Q01DX009 (ip), vehicle: saline with Tween-80
[7] = dose: 3.13 mg/kg/injection, schedule: Q04DX003 (ip), vehicle: Klucel (hydroxypropylcellulose) (HPC)
[8] = dose: 12.5 mg/kg/injection, schedule: Q04DX003 (ip), vehicle: Klucel (hydroxypropylcellulose) (HPC)
[9] = dose: 100.0 mg/kg/injection, schedule: Q04DX003 (ip), vehicle: saline with Tween-80
[10] = dose: 200.0 mg/kg/injection, schedule: Q04DX003 (ip), vehicle: saline with Tween-80
[11] = dose: 400.0 mg/kg/injection, schedule: Q04DX003 (ip), vehicle: saline with Tween-80
[12] = dose: 200.0 mg/kg/injection, schedule: Q04DX003 (ip), vehicle: Klucel (hydroxypropylcellulose) (HPC)

`Nc1nc(N)c2nc(CNc3ccc(C(=O)NC(CCC(=O)O)C(=O)O)cc3)cnc2n1` (stereo not given) was tested, and the T/C (dose: 0.03 mg/kg/injection, schedule: Q01DX010 (ip), vehicle: other) was 90 % of control and 104 % of control, the T/C (dose: 0.05 mg/kg/injection, schedule: Q01DX010 (ip), vehicle: other) was 109 % of control and 115 % of control and the T/C (dose: 0.1 mg/kg/injection, schedule: Q01DX010 (ip), vehicle: other) was 118 % of control. For the same molecule, the T/C (dose: 0.2 mg/kg/injection, schedule: Q01DX010 (ip), vehicle: other) was 163 % of control and 175 % of control.

With `COc1cc(OC)cc(-c2n[se]c(-c3cc(OC)cc(OC)c3)n2)c1` the T/C (dose: 0.19 mg/kg/injection, schedule: Q01DX009 (ip), vehicle: saline with Tween-80) was 114 % of control, the T/C (dose: 0.39 mg/kg/injection, schedule: Q01DX009 (ip), vehicle: saline with Tween-80) was 98 % of control and the T/C (dose: 0.78 mg/kg/injection, schedule: Q01DX009 (ip), vehicle: saline with Tween-80) was 104 % of control. The T/C (dose: 1.56 mg/kg/injection, schedule: Q01DX009 (ip), vehicle: saline with Tween-80) was 107 % of control.

`O=C(NN=C1CCCCC1)c1ccccc1` was tested, and the T/C [1] was 100 % of control, the T/C (dose: 50.0 mg/kg/injection, schedule: Q01DX009 (ip), vehicle: Klucel (hydroxypropylcellulose) (HPC)) was 100 % of control and the T/C [2] was 100 % of control. The T/C (dose: 56.25 mg/kg/injection, schedule: Q01DX001 (ip), vehicle: Klucel (hydroxypropylcellulose) (HPC)) was 100 % of control, the T/C [3] was 110 % of control and the T/C [4] was 86 % of control. For the same molecule, the T/C (dose: 112.5 mg/kg/injection, schedule: Q01DX001 (ip), vehicle: Klucel (hydroxypropylcellulose) (HPC)) was 104 % of control, the T/C (dose: 150.0 mg/kg/injection, schedule: Q04DX003 (ip), vehicle: Klucel (hydroxypropylcellulose) (HPC)) was 104 % of control and the T/C (dose: 225.0 mg/kg/injection, schedule: Q01DX001 (ip), vehicle: Klucel (hydroxypropylcellulose) (HPC)) was 109 % of control. The T/C (dose: 225.0 mg/kg/injection, schedule: Q04DX003 (ip), vehicle: Klucel (hydroxypropylcellulose) (HPC)) was 95 % of control.

For `Clc1ccc(N=C(SSC(Cl)(Cl)Cl)SSC(Cl)(Cl)Cl)cc1`, the T/C (dose: 12.5 mg/kg/injection, schedule: Q01DX009 (ip), vehicle: saline with Tween-80) was 116 % of control, the T/C [5] was 103 % of control and the T/C [6] was 109 % of control.

In the case of `COC(=O)CCCc1cc(O)c2c(c1O)C(=O)c1ccccc1C2=O`, the T/C (dose: 100.0 mg/kg/injection, schedule: Q01DX001 (ip), vehicle: saline sonified) is reported as 100 % of control, the T/C (dose: 200.0 mg/kg/injection, schedule: Q01DX001 (ip), vehicle: saline sonified) is reported as 100 % of control and the T/C (dose: 400.0 mg/kg/injection, schedule: Q01DX001 (ip), vehicle: saline sonified) is reported as 95 % of control.

In the case of `O=S(=O)(ON=C1C=CC(=NOS(=O)(=O)c2ccccc2)C=C1)c1ccccc1`, the T/C [7] is reported as 109 % of control, the T/C (dose: 6.25 mg/kg/injection, schedule: Q04DX003 (ip), vehicle: Klucel (hydroxypropylcellulose) (HPC)) is reported as 111 % of control and the T/C [8] is reported as 109 % of control. The T/C [1] was 109 % of control.

`COC1=CC(=O)C(Cl)=C(OC)C1=O` was tested, and the T/C (dose: 0.78 mg/kg/injection, schedule: Q01DX009 (ip), vehicle: saline) was 113 % of control, the T/C (dose: 1.56 mg/kg/injection, schedule: Q01DX009 (ip), vehicle: saline) was 113 % of control and the T/C (dose: 3.13 mg/kg/injection, schedule: Q01DX009 (ip), vehicle: saline with Tween-80) was 110 % of control. For the same molecule, the T/C (dose: 3.13 mg/kg/injection, schedule: Q01DX009 (ip), vehicle: saline) was 104 % of control.

`N#CN=C([S-])[S-].N#CN=C([S-])[S-].[Cu]` was tested, and the T/C (dose: 0.39 mg/kg/injection, schedule: Q01DX001 (ip), vehicle: saline) was 104 % of control, the T/C (dose: 0.78 mg/kg/injection, schedule: Q01DX001 (ip), vehicle: saline) was 100 % of control and the T/C (dose: 1.56 mg/kg/injection, schedule: Q01DX001 (ip), vehicle: saline) was 100 % of control. For the same molecule, the T/C (dose: 6.25 mg/kg/injection, schedule: Q01DX009 (ip), vehicle: saline) was 100 % of control, the T/C (dose: 6.25 mg/kg/injection, schedule: Q04DX003 (ip), vehicle: saline) was 86 % of control and the T/C (dose: 12.5 mg/kg/injection, schedule: Q04DX003 (ip), vehicle: saline) was 100 % of control.

For `CC(=O)Oc1cccc2c1C(=O)c1c(OC(C)=O)cccc1C2=O`, the T/C [7] was 101 % of control, the T/C [8] was 99 % of control and the T/C [1] was 117 % of control. The T/C [2] was 108 % of control.

`OCCNCc1ccccc1` was tested, and the T/C (dose: 100.0 mg/kg/injection, schedule: Q04DX003 (ip), vehicle: water) was 100 % of control and the T/C (dose: 400.0 mg/kg/injection, schedule: Q04DX003 (ip), vehicle: water) was 113 % of control.

With `CN1CC2([N+](=O)[O-])C=CCC([N+](=O)[O-])(C1)C2` (stereo not given) the T/C (dose: 25.0 mg/kg/injection, schedule: Q01DX009 (ip), vehicle: water) was 90 % of control, the T/C (dose: 50.0 mg/kg/injection, schedule: Q01DX009 (ip), vehicle: water) was 115 % of control and the T/C (dose: 100.0 mg/kg/injection, schedule: Q01DX009 (ip), vehicle: water) was 108 % of control. The T/C (dose: 200.0 mg/kg/injection, schedule: Q01DX009 (ip), vehicle: water) was 99 % of control.

`CC/C(=N\NS(=O)(=O)c1ccc(C)cc1)c1ccc(OC)cc1` was tested, and the T/C (dose: 50.0 mg/kg/injection, schedule: Q01DX009 (ip), vehicle: saline) was 92 % of control, the T/C (dose: 100.0 mg/kg/injection, schedule: Q01DX009 (ip), vehicle: saline) was 104 % of control and the T/C (dose: 200.0 mg/kg/injection, schedule: Q01DX009 (ip), vehicle: saline) was 93 % of control.

`Cn1nnnc1N/N=C(\Br)c1ccccc1` was tested, and the T/C [5] was 110 % of control, the T/C [6] was 105 % of control and the T/C (dose: 100.0 mg/kg/injection, schedule: Q01DX009 (ip), vehicle: saline with Tween-80) was 120 % of control. The T/C [9] was 104 % of control, the T/C (dose: 200.0 mg/kg/injection, schedule: Q01DX009 (ip), vehicle: saline with Tween-80) was 120 % of control and the T/C [10] was 95 % of control. The T/C [11] was 90 % of control.

With `Cc1c(Cl)cccc1NC(=O)Nc1cccc2ccccc12` the T/C [9] was 91 % of control, the T/C [10] was 100 % of control and the T/C [11] was 108 % of control.

For `CCC(C)NC(=S)NN` (stereo not given), the T/C (dose: 10.0 mg/kg/injection, schedule: Q01DX009 (ip), vehicle: saline with Tween-80) was 95 % of control, the T/C (dose: 20.0 mg/kg/injection, schedule: Q01DX009 (ip), vehicle: saline with Tween-80) was 100 % of control and the T/C (dose: 40.0 mg/kg/injection, schedule: Q01DX009 (ip), vehicle: saline with Tween-80) was 95 % of control.

With `Cc1ccc(NC(=O)Nc2ccccc2C(F)(F)F)cc1NC(=O)Nc1ccccc1C(F)(F)F` the T/C [9] was 100 % of control, the T/C [10] was 100 % of control and the T/C [11] was 104 % of control.

For `CC(C)(O)c1cnc(OCc2ccccc2)nc1OCc1ccccc1`, the T/C (dose: 100.0 mg/kg/injection, schedule: Q01DX001 (ip), vehicle: Klucel (hydroxypropylcellulose) (HPC)) was 109 % of control, the T/C [3] was 95 % of control and the T/C (dose: 200.0 mg/kg/injection, schedule: Q01DX001 (ip), vehicle: Klucel (hydroxypropylcellulose) (HPC)) was 104 % of control. For the same molecule, the T/C (dose: 200.0 mg/kg/injection, schedule: Q01DX009 (ip), vehicle: Klucel (hydroxypropylcellulose) (HPC)) was 91 % of control, the T/C (dose: 400.0 mg/kg/injection, schedule: Q01DX001 (ip), vehicle: Klucel (hydroxypropylcellulose) (HPC)) was 95 % of control and the T/C (dose: 400.0 mg/kg/injection, schedule: Q01DX009 (ip), vehicle: Klucel (hydroxypropylcellulose) (HPC)) was 86 % of control.

In the case of `O=C1c2ccccc2CCC12OC2c1ccccc1[N+](=O)[O-]` (stereo not given), the T/C [2] is reported as 110 % of control, the T/C [4] is reported as 100 % of control and the T/C [12] is reported as 110 % of control.

With `Cc1cc(C)nc(NS(=O)(=O)c2ccc(N=Nc3nc4[nH]c(N)nc(=S)c4[nH]3)cc2)n1` the T/C (dose: 1.56 mg/kg/injection, schedule: Q01DX009 (ip), vehicle: Klucel (hydroxypropylcellulose) (HPC)) was 113 % of control, the T/C (dose: 3.13 mg/kg/injection, schedule: Q01DX009 (ip), vehicle: Klucel (hydroxypropylcellulose) (HPC)) was 117 % of control and the T/C (dose: 6.25 mg/kg/injection, schedule: Q01DX009 (ip), vehicle: Klucel (hydroxypropylcellulose) (HPC)) was 112 % of control and 113 % of control. For the same molecule, the T/C [2] was 116 % of control, the T/C [4] was 108 % of control and the T/C [12] was 104 % of control.

`CC1CNC2C(C)C3C(CC4C5CCC6CC(N)CCC6(C)C5CCC43C)OC2(O)C1` (stereo not given) was tested, and the T/C (dose: 12.5 mg/kg/injection, schedule: Q04DX003 (ip), vehicle: saline with Tween-80) was 112 % of control, the T/C (dose: 25.0 mg/kg/injection, schedule: Q04DX003 (ip), vehicle: saline with Tween-80) was 100 % of control and the T/C (dose: 50.0 mg/kg/injection, schedule: Q04DX003 (ip), vehicle: saline with Tween-80) was 91 % of control.
